According to ChEMBL document CHEMBL1201862, “PubChem BioAssay data set” (2004):
The source made the active and inactive calls.

Assays:
[1] = molecular target: T1, Tyrosine-protein phosphatase non-receptor type 7 (Homo sapiens, UniProt P35236); assay: redox-active compounds inhibiting HePTP phosphatase – biochemical, fluorescence, mechanism study (AID 2068); type: functional
T1 sequence (P35236 whole entry): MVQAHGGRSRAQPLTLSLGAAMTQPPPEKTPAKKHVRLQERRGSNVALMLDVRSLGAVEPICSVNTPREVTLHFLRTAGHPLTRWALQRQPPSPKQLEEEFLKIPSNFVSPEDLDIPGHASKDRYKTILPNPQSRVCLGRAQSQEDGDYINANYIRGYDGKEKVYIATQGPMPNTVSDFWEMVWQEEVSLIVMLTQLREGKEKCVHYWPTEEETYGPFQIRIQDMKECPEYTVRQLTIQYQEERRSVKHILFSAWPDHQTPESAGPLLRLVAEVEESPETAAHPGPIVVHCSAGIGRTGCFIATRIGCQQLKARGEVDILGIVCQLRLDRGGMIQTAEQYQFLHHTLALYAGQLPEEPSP

[2] = molecular target: T2, Tyrosine-protein phosphatase non-receptor type 22 (Homo sapiens, UniProt Q9Y2R2); assay: inhibition of lymphoid tyrosine phosphatase LYP – biochemical, pCAP fluorogenic substrate, fluorescence, set 3, SAR follow-up (AID 449727); type: functional
T2 sequence (Q9Y2R2 whole entry): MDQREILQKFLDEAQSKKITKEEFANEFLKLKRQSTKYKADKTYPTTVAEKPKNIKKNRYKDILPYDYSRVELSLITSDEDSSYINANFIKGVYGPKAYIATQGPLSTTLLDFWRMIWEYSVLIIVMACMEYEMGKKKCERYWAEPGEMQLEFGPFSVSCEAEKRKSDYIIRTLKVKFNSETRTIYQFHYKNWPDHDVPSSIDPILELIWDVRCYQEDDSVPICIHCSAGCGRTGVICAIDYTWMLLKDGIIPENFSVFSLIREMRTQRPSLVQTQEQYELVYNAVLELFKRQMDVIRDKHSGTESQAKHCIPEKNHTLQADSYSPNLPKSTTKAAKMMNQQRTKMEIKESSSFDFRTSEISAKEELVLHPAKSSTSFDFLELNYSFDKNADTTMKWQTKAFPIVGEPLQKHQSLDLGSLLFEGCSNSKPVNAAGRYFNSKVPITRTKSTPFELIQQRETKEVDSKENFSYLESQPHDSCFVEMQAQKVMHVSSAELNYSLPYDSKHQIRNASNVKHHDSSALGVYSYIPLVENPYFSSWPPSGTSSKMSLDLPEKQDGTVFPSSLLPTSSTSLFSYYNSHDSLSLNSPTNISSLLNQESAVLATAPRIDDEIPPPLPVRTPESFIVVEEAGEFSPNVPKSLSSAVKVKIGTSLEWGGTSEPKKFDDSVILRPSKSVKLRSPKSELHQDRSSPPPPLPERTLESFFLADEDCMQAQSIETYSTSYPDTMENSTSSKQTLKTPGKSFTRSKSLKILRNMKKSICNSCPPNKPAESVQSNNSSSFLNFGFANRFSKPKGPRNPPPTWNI

[3] = molecular target: T2, Tyrosine-protein phosphatase non-receptor type 22; assay: SAR LYP1 Fluorescent Assay using OMFP substrate for In Vitro dose response studies - Set 3. [Related pubchem assays (depositor defined):AID1779, AID1784, AID2140, AID2686]; type: functional
[4] = molecular target: T1, Tyrosine-protein phosphatase non-receptor type 7; assay: inhibition of hematopoietic tyrosine phosphatase HePTP – biochemical, set 2, SAR follow-up (AID 449736); type: functional
[5] = molecular target: T3, Dual specificity protein phosphatase 6 (Rattus norvegicus, UniProt Q64346); type: functional;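 also: confirmatory in vitro dose-response testing of MKP-3 inhibition; recombinant His-tagged MKP-3 made in E. coli BL21 with OMFP substrate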
T3 sequence (Q64346 whole entry): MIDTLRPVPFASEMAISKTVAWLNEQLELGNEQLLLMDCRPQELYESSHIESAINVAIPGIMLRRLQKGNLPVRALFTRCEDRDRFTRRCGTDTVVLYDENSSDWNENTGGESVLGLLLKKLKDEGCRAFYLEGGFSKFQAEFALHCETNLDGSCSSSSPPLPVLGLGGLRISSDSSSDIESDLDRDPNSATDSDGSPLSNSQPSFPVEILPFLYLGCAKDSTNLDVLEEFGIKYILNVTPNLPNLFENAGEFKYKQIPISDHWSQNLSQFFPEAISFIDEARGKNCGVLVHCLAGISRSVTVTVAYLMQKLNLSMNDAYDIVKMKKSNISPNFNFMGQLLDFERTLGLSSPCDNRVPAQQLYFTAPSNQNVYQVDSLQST

[6] = molecular target: Dual specificity protein phosphatase 3 (Homo sapiens, UniProt P51452); assay: SAR VHR1 Fluorescent Assay for In Vitro dose response studies Set 2. [Related pubchem assays (depositor defined):AID1654, AID1661, AID1878]; type: functional
Chain of Dual specificity protein phosphatase 3 (P51452 whole entry): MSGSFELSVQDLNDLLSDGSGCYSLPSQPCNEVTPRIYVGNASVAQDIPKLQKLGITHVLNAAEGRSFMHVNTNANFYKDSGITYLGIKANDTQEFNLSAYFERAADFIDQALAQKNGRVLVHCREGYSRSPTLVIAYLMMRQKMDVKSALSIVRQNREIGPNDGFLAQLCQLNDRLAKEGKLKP

[7] = molecular target: Tyrosine-protein phosphatase non-receptor type 12 (Homo sapiens, UniProt Q05209); assay: SAR Selectivity Analysis of small molecule inhibitors of PEST using pCAP in a fluorescence assay. [Related pubchem assays (depositor defined):AID1779, AID1784, AID2135]; type: functional
Chain of Tyrosine-protein phosphatase non-receptor type 12 (Q05209 whole entry): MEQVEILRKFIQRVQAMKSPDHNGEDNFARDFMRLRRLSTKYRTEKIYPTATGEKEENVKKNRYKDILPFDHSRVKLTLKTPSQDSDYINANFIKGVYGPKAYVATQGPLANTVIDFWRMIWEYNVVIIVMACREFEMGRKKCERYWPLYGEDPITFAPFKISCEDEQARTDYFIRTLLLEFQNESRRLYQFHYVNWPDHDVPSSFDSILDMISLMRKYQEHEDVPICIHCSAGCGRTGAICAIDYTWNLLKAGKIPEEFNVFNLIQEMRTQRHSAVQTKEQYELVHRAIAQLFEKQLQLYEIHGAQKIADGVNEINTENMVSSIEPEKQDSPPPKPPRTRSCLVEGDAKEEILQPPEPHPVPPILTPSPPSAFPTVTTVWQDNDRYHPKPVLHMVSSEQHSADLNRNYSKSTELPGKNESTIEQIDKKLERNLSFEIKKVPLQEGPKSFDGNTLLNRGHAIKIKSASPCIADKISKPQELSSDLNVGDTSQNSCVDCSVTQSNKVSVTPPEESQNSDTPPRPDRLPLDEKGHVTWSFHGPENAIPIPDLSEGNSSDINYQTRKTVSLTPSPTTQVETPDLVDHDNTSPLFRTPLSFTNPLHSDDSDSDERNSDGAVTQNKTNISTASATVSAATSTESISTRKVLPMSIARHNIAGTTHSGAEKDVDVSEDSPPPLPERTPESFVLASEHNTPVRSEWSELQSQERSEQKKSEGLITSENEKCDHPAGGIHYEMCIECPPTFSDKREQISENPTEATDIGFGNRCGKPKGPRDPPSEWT

[8] = molecular target: Voltage-gated inwardly rectifying potassium channel KCNH2 (Homo sapiens, UniProt Q12809); settings: Potency;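 also: confirmatory quantitative high-throughput screen measuring inhibition of hERG channel activity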
Chain of Voltage-gated inwardly rectifying potassium channel KCNH2 (Q12809 whole entry): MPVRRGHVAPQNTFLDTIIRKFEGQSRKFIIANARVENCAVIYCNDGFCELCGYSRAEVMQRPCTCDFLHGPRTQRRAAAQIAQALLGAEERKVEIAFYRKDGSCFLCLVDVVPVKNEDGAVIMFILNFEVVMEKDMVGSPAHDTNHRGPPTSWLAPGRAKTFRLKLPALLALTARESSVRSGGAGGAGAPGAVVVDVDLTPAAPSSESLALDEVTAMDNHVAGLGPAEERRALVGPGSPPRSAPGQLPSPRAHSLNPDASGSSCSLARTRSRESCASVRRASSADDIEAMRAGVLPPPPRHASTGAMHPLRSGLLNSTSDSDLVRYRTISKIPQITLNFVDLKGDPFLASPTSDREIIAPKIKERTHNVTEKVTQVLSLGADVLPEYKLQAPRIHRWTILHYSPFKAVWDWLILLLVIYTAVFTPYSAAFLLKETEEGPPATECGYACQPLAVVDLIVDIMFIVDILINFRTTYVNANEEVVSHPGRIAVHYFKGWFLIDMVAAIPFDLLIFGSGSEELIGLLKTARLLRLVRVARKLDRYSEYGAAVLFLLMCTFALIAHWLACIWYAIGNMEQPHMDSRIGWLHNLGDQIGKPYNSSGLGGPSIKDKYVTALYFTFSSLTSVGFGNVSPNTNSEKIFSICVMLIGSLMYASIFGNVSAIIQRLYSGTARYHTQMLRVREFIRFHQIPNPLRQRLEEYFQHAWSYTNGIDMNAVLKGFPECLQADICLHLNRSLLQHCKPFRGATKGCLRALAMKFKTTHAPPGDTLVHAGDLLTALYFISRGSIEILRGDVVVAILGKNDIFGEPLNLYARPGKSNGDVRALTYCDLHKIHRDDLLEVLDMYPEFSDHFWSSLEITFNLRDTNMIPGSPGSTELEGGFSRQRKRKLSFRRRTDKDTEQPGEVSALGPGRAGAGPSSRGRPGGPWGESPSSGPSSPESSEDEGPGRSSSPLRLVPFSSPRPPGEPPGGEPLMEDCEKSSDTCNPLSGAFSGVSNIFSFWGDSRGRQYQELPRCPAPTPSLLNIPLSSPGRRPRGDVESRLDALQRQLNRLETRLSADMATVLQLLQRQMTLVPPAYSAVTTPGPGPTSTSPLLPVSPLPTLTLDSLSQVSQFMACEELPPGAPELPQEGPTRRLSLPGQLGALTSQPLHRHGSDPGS

HeLa = assay: ATP-based viability loss in HeLa cells – cell-based, CellTiter-Glo luminescence, cherry-pick samples, cytotoxicity control for MITF activator project, dose response (AID 540259); type: functional; settings: Homo sapiens
[9] = viability of PTEN-deleted HCT116 cells – cell-based, HCT116 PTEN knockout, dose response (AID 1047); type: functional;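 also: HCT116 colon tumor cells with PTEN knocked out; cells exposed to compound for 60 hours before readout; potency for loss of cell viability measured by luminescence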
Melanocortin receptor 4 = Melanocortin receptor 4 (Homo sapiens, UniProt P32245); assay: inhibitors of MC4R cAMP signaling – cell-based, TR-FRET, biased antagonists, dose response (AID 602298); type: functional;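 also: antagonist potency against agonist-stimulated cAMP production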
Chain of Melanocortin receptor 4 (P32245 whole entry): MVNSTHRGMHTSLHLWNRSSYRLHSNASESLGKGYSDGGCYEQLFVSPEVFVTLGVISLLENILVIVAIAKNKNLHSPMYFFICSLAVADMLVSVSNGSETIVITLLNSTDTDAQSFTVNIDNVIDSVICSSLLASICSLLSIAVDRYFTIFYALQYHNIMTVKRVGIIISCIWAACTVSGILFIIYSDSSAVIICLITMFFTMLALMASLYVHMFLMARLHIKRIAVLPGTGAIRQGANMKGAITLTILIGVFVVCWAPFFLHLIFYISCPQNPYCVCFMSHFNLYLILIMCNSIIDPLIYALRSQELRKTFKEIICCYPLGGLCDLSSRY

[10] = viability loss of HPDE-C7K cells – cell-based, fluorescence, HTS, primary screen (AID 431); type: functional; settings: Homo sapiens
Jurkat = assay: blockers of NF-kB activation in T cells – Jurkat, luciferase reporter, luminescence, B- and T-cell, dose response (AID 489004); type: functional, cell-based; settings: Homo sapiens;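 also: NF-kB luciferase reporter Jurkat cells stimulated with PMA plus ionomycin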
[11] = viability of HCT116 lacking mutant beta-catenin – cell-based, human colon tumor, dose response (AID 1045); type: functional;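 also: HCT116 colon tumor cells with beta catenin knocked out; cells exposed to compound for 60 hours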
[12] = HPDE-C7 pancreatic duct cell viability loss – fluorescence, HTS (AID 430); type: functional, cell-based; settings: Homo sapiens
[13] = HEK-293T viability loss, compound-treated – cell-based, uHTS hits, cytotoxicity control for B/T-cell NF-kB inhibitor project, dose response (AID 489019); type: functional;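 also: IC50 reflects cytotoxicity as loss of cell viability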
[14] = NIH3T3 cell viability loss – ATP luminescence, mouse fibroblasts, counter-screen, dose response (AID 2010); type: functional, cell-based;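 also: cells exposed to compound for about 90 hours before reading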
[15] = Trypanosoma cruzi growth suppression in host cells – NIH3T3 host cells, beta-gal luminescence, confirmation (AID 2044); type: functional, cell-based;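 also: intracellular parasites grown in NIH/3T3 mouse fibroblasts as host cells; luminescent beta-galactosidase reporter signal from transgenic T. cruzi replicating inside host cells; inhibitors lower the luminescence signal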
[16] = cAMP pathway inhibition in counterscreen cell line – TR-FRET cAMP detection, counter-screen for MC4R biased antagonist project, dose response (AID 602305); type: functional, cell-based;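 also: U2OS cells stimulated with forskolin near its EC80 as the cAMP inducer; potency is for inhibition of forskolin-stimulated cAMP signaling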

CCOc1cc(/C=C2/S/C(=N\c3ccccc3)NC2=O)cc(I)c1OCC(=O)O
active: IC50 [1] 6.03 µM | IC50 [2] 30.2 µM | IC50 [3] 56.6 µM | IC50 [4] 2.33 µM | IC50 [6] 33.8 µM | IC50 [7] 7.6 µM
inactive: IC50 [5] > 100 µM

C=CCN1CC[C@]23CCCCC2[C@H]1Cc1ccc(O)cc13 (some centres undefined)
inconclusive: AC50 [8] 2.24 µM

CCn1c(C)nc2cc(C(=O)N/N=C(\C)c3ccccc3O)ccc21
active: AC50 (HeLa) 126 µM

N=c1c2c(-c3ccccc3)c(-c3ccccc3)n(Cc3ccccc3)c2ncn1CCCn1ccnc1
inactive: IC50 (Melanocortin receptor 4) > 64.6 µM | IC50 [13] 43.2 µM | IC50 [16] > 64.6 µM
active: EC50 [9] 0.85 µM | EC50 [10] 17 µM | IC50 (Jurkat) 8.3 µM | EC50 [11] 0.613 µM | EC50 [12] 5.47 µM | EC50 [14] 7.16 µM | EC50 [15] 2.44 µM
